Data as given in publication PMC6132687, “Stem cells are the most sensitive screening tool to identify toxicity of GATA4-targeted novel small-molecule compounds” (Archives of Toxicology, 2018).

What was measured:
[1] = tested on: GATA4–NKX2-5 transcriptional synergy; assay: Luciferase reporter assay of GATA4–NKX2-5 synergistic gene activation in COS-1 cells; assay type: cell-based, African green monkey; details: 24 h treatment, normalized to DMSO
Method: COS-1 cells were used to investigate the compound effects on GATA4–NKX2-5 synergistic gene activation using a luciferase reporter assay (Kinnunen et al. [2015]). Toxicity profiling was carried out in eight cell types: the H9c2 myoblast cell line, NRVCs, CFs, mESCs, MEFs, mESC derivatives from day 5 embryoid bodies (D5EBs), hiPSCs and hiPSC-CMs. All cell cultures were maintained at 37 °C in a humidified atmosphere of 5% carbon dioxide (CO2) and the regular growth medium was used for compound exposures. Cell culture methods and cardiomyocyte differentiation from human pluripotent stem cells are described in Supplementary Information.
The empty expression plasmid MT2 (pMT2) and mouse Gata4 expressing pMT2-Gata4 plasmids were gifts from D. B. Wilson (Department of Pediatrics, St. Louis Children’s Hospital) (Arceci et al. [1993]). The luciferase reporter plasmid pGL3-3xHA containing three Nkx2-5 high-affinity binding sites has been described previously (Kinnunen et al. [2015]). To create mouse Nkx2-5 expressing pMT2-Nkx2-5, the cDNA was cloned from pFLCI-Nkx2-5 (clone D330001C20, Imagenes), which was a kind gift from R. Kerkelä (University of Oulu, Finland), with primers containing the EcoRI restriction site (forward: 5′-[…]-3′ and reverse 5′-[…]-3′) and ligated to pMT2 EcoRI site. The correct clone was identified by digestion with specific restriction enzymes and the sequence was verified by DNA sequencing (DNA Sequencing and Genomics Laboratory, Institute of Biotechnology, University of Helsinki, Finland).
COS-1 cells grown on 96-well plates were transfected with the luciferase reporter plasmid pGL3-3xHA (100 ng/well) and equal amounts of expression vectors pMT2-Gata4 and pMT2-Nkx2-5 (total of 50 ng/well) using Fugene 6 (Promega) at a reagent:DNA ratio of 3:1. Cells transfected with either pMT2, pMT2-Gata4 or pMT2-Nkx2-5 were used to confirm synergistic transactivation of the reporter gene in all experiments. After 6 h of transfection, the cells were treated with compounds or vehicle (0.1% dimethyl sulfoxide, DMSO) and the luminescence was measured 24 h later using Neolite Reporter Gene Assay System (PerkinElmer, Turku, Finland) according to manufacturer’s instructions and Victor2 plate reader (PerkinElmer, Turku, Finland). Each compound was tested in three technical replicates in at least two independent experiments.
A luciferase reporter assay with an artificial promoter containing three high-affinity binding sites for NKX2-5 was used to evaluate the effects of the compounds on GATA4–NKX2-5 transcriptional synergy (Kinnunen et al. [2015]). We have previously shown that while GATA4 alone induces only minimal activation of this promoter, it strongly potentiates NKX2-5-mediated transactivation (Kinnunen et al. [2015]; Välimäki et al. [2017]).

hiPSCs = assay: MTT assay in hiPSCs; assay type: cell-based, human; details: for IC50: Homo sapiens, 24-h exposure, read-out: IC50 (hiPSC viability)
Method: The cells were exposed to the test compounds for 24 h and cytotoxicity was quantified with MTT and LDH assays as described previously (Talman et al. [2011]). For the determination of cell membrane integrity, 50 µl of medium from each well was transferred onto a new 96-well plate followed by addition of 50 µl of substrate solution containing 1.3 mM β-nicotinamide adenine dinucleotide, 660 µM iodonitrotetrazolium, 54 mM L(+)-lactic acid, 280 µM phenazine methosulphate and 0.2 M Tris–HCl (pH 8.0). After a 30-min incubation, the reaction was stopped by adding 50 µl of 1 M acetic acid to each well and absorbance was measured at 490 nm using Victor2 plate reader (PerkinElmer, Turku, Finland). Spontaneous LDH release was measured from untreated cells, maximal LDH release from cells lysed with 0.9% Triton X-100 and background absorbance was measured from wells without cells. After background extraction, cytotoxicity was calculated as follows: cytotoxicity (%) = [(sample − spontaneous LDH release)/(maximal LDH release − spontaneous LDH release)] × 100. For quantification of metabolic activity, 3-(4,5-dimethylthiazol-2-yl)-2,5-diphenyltetrazolium bromide (MTT) was added to the cells at a final concentration of 0.5 mg/ml followed by 2 h incubation in cell culture conditions. The medium was then aspirated and formazan crystals were solubilized in DMSO. Absorbance was measured at 550 nm and absorbance at 650 nm was subtracted as background. […]
Human pluripotent stem cells (hiPSCs): The iPS(IMR90)-4 line (Yu et al. 2007) was purchased from WiCell (Madison, Wisconsin, USA). The cells were cultured in Essential 8 ™ medium (E8) on 6-well plates coated with Matrigel® (1:50) and passaged 1:15 approximately every four days. The cells were dissociated using Versene®, resuspended in E8 containing 10 µM ROCK inhibitor (Y-27632) and seeded at 10,000 cells/well (cytotoxicity assays) or 5,000 cells/well (high-content imaging) in Matrigel®-coated 96-well plates. The cells were incubated overnight in standard conditions prior to compound addition. […]
1640 without glucose with B-27 supplement in order to purify cardiomyocytes. From day 15 onwards the cells were maintained in RPMI 1640 supplemented with B-27 (RB+ins). Beating hiPSC-CMs were dissociated between days 15 and 22 by incubating them in cell dissociation solution containing 40% enzyme-free cell dissociation buffer, 40% RPMI 1640 and 20% trypsin-EDTA (final trypsin concentration 0.01%) for 7–8 min, whereafter the cells were collected and trypsin was inactivated in RB+ins supplemented with 10% FBS. After centrifugation the cells were suspended in RB+ins with 10% FBS containing 10 µM ROCK inhibitor and seeded at 15,000 cells/well (cytotoxicity assays) or 20,000 cells/well (high content analysis) in gelatin-coated 96-well plates. The cells were let to attach for 2 days at 37 °C in standard conditions, whereafter the compounds were added in RB+ins. In general, the differentiation yielded an almost pure (>95%) cardiomyocyte culture.
Syntheses and characterization of compounds
Materials and general procedures. All reagents were acquired from Sigma-Aldrich (Schnelldorf, Germany) and Enamine (Kiev, Ukraine), and were used without further purification. All reactions in anhydrous solvents were conducted in oven-dried glassware under anhydrous argon. Thin-layer chromatography (TLC) was performed using Silica Gel 60 F254 (Merck) and Silica Gel 60 NH2 F254s aluminium sheets (Merck), visualized by UV illumination and stained with ninhydrin in EtOH (1.5% w/v). Microwave reactions were performed with a Biotage Initiator+ Robot Eight microwave (Uppsala, Sweden). Column chromatography was performed with an automated high performance flash chromatography Biotage Sp4-system or with a Isolera Spektra One-system (Uppsala, Sweden) using a 0.1-mm path length flow cell UV-detector/recorder module (fixed wavelength 254 nm) for the […] or a variable UV-VIS (200-800 nm) photodiode array detector for the Isolera Spektra One- […]

CCN(CC)c1ccc(NC(=O)c2c(C)noc2-c2cc(C)on2)cc1 [3i-1047]
effect on GATA4- and NKX2-5-induced gene activation (luciferase reporter activity) [1]: only a weak effect | reduction in viability (hiPSCs; hiPSCs, 24 h, 30 µM): 38–45%

CCC(=O)N(Cc1ccc(N(CC)CC)cc1)c1c(-c2ccccc2)noc1C [3i-1120]
effect on GATA4- and NKX2-5-induced gene activation (luciferase reporter activity) [1]: inhibitory effect | IC50 (hiPSCs): 600 nM | sensitivity of cell type to compound (viability) (hiPSCs; hiPSCs, 24 h): sensitive

COc1ccc(-c2cc(N)nn2C(=O)c2c(-c3ccccc3)noc2C)cc1 [3i-1229]
effect on GATA4- and NKX2-5-induced gene activation (luciferase reporter activity) [1]: only a weak effect | IC50 (hiPSCs): 2070 nM | sensitivity of cell type to compound (viability) (hiPSCs; hiPSCs, 24 h): sensitive

CCN(CC)c1ccc(NC(=O)c2c(-c3ccccc3)noc2C)cc1 [3i-1000]
effect on GATA4- and NKX2-5-induced gene activation (luciferase reporter activity) [1]: inhibitory effect | IC50 (hiPSCs): 1460 nM | reduction in cell viability (hiPSCs; hiPSCs, 24 h, at ≥ 3 µM): 93–94%

CCN(CC)c1ccc(NC(=O)c2cc(C)oc2-c2ccccc2)cc1 [3i-1148]
effect on GATA4- and NKX2-5-induced gene activation (luciferase reporter activity) [1]: inhibitory effect | IC50 (hiPSCs): 300 nM | sensitivity of cell type to compound (viability) (hiPSCs; hiPSCs, 24 h): sensitive
